Values of other authors in US20240299470A1, “METHODS OF PROBIOTIC TREATMENT TO IMPROVE HUMAN HEALTH” (SEED HEALTH INC., priority 2021, published 2024).

Columns and labels:
[1] = test system: overweight individuals; conditions: delivered directly in the colon
[2] = test system: mice; conditions: NOD2-dependent but MyD88-independent

Molecule	energy intake, adiposity, and lipid liver content [1]	plasma levels of peptide YY (PYY) and glucagon-like peptide 1 (GLP-1) [1]	protection from colitis [2]
CCC(=O)O [propionate]	reduced	increased	–
M-tri-Lys	–	–	protected mice from colitis
